According to patent US8222218B2, “Cyclopropanated carbohydrates” (Seton Hall University, priority 2008, dated 2012):
Like-named read-outs stand apart in the source and are kept apart here.

Legend:
seizures = experiment: In vivo anticonvulsant screening (MES, scMET, minimal clonic seizure), summary in words; set-up: species or system rat, mouse; conditions: summary of Table 2
Method: (§1) Toxicity was measured using the minimal motor impairment test described below.
(§2) The MES test is a model for generalized tonic-clonic seizures. The seizures are highly reproducible and electrophysiologically consistent with human seizures. The test provides information about a compound's ability to prevent the spread of seizure when all neuronal circuits of the brain are maximally active. 60 Hz of alternating current (50 mA in mice, 150 mA in rats) is applied for 2 seconds via corneal electrodes that have been treated with an electrolyte solution containing an anesthetic (0.5% tetracaine HCl). Mice are tested at a variety of intervals after an i.p. injection of […] solution of the test compound (commonly in a 0.5% solution of methylcellulose) at 30, 100, and 300 mg/kg doses. Rats are examined after a 30 mg/kg (per os, p.o.) dose that is applied in a volume of 0.04 mL/g. An animal is considered “protected” from MES-induced seizures upon removal of the hind limb extensor component of the seizure.
The subcutaneous injection of metrazole, which is a convulsant, produces clonic seizures in laboratory animals. The scMET test is designed to identify compounds that raise the seizure threshold of an animal. Mice are pretreated with test compound at 30, 100, and 300 mg/kg doses in a similar manner to the MES test. Rats are treated with a 50 mg/kg dose (p.o.). At the previously determined TPE of the test compound, the dose of metrazole that will induce convulsions in 97% of animals (CD97: 85 mg/kg mice) is injected into the loose fold of the skin in the midline of the neck. The animals are placed in isolation cages to minimize stress and observed for the next 30 minutes for the presence or absence of seizures. An episode of clonic spasms (approximately 3-5 seconds) of the fore and/or hindlimbs, jaws or vibrissae is taken as the endpoint.
The minimal clonic seizure (6 Hz) test, like the MES test, is used to assess a compound's ability to protect against electrically-induced seizures. The minimal clonic (6 Hz) seizure test uses a lower frequency (6 Hz) and a longer duration of stimulation (3 seconds) than the MES test. Test compounds are pre-administered to mice via i.p. injection. At varying times, individual mice (four per time point) are challenged with sufficient current via corneal electrodes to elicit a psychomotor seizure in 97% of animals (32 mA for 3 second). Untreated mice will display seizure characterized by a minimal clonic phase followed by stereotyped, automatistic behaviors described originally as being similar to the aura of human patients with partial seizures. Animals not displaying this behavior are considered to be protected.

[1] = system: metrazole-induced clonic seizures; experiment: Subcutaneous Metrazole Seizure Threshold Test (scMET), rats; assay type: in vivo; conditions: rat, row printed as 300, 0.4 h
MES-induced seizures [2] = experiment: Maximal Electroshock Seizure (MES) test, mice; assay type: in vivo; conditions: Mus musculus, ip, mice, i.p.
Procedure, shortened: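 Seizures were induced by a 60 Hz corneal current for 2 s (50 mA in CF1 mice, 150 mA in Sprague-Dawley rats). Mice received 30, 100 or 300 mg/kg i.p. in 0.5% methylcellulose and were tested at several intervals; rats received 30 mg/kg p.o. Protection means abolition of hind-limb tonic extension.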

[3] = Acute toxicity, minimal motor impairment (ataxia), rats; assay type: in vivo; conditions: rat, 30 mg/kg
Method: as §1
Animals are monitored for overt signs of impaired neurological or muscular function to assess a compound's toxicity. In mice, the rotorod procedure is used to disclose minimal muscular or neurological impairment. When a mouse is placed on a rotating rod (6 rpm), the animal can maintain its equilibrium for long periods of time. The animal is considered toxic if it falls off the rotating rod three times during a 1 minute period. In rats, minimal motor deficit is indicated by ataxia, which is manifested by an abnormal, uncoordinated gait. Rats used for toxicity evaluation are examined before the test drug is given as individual animals may have peculiarities in gait, equilibrium, and pacing response which must be distinguished from potential effects of the test substance.
(§3) Male and female albino CF1 mice (18-25 g, Charles River, Portage, Mich.) and male albino Sprague-Dawley rats (275-300 g, kindling test; 100-150 g all other tests; Charles River, Raleigh, N.C.) were used as experimental animals.

[4] = system: metrazole-induced clonic seizures; experiment: Subcutaneous Metrazole Seizure Threshold Test (scMET), mice; assay type: in vivo; conditions: Mus musculus, sc, mice
Procedure, shortened: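 CF1 mice dosed with test compound at 30, 100 and 300 mg/kg; Sprague-Dawley rats at 50 mg/kg p.o. At compound TPE, metrazole at CD97 (85 mg/kg in mice) injected s.c. in the neck. Animals observed 30 min; endpoint is a 3-5 s clonic spasm episode.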

[5] = Acute toxicity, minimal motor impairment (rotorod), mice; assay type: in vivo; conditions: mice, rotorod
Procedure, shortened: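 Mice placed on a rod rotating at 6 rpm; a compound is scored toxic when the animal falls off three times within 1 min. In rats, minimal motor deficit is scored as ataxia, an abnormal uncoordinated gait.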

MES-induced seizures [6] = experiment: Maximal Electroshock Seizure (MES) test, rats; assay type: in vivo; conditions: rat, p.o., 30 mg/kg
Method: as §1, §2, §3

CCOC(=O)C1[C@@H]2[C@@H](O)[C@@H]3O[C@H](c4ccc(OC)cc4)OC[C@H]3O[C@H]12 (stereo partly drawn) [Compound 16, ethyl (2R,4aR,5aS,6aR,7R,7aS)-7-hydroxy-2-(4-methoxyphenyl)hexahydro-4H-cyclopropa[5,6]pyrano[3,2-d][1,3]dioxine-6-carboxylate]
anticonvulsant activity (seizures): anticonvulsant activity
scMET 300 0.4 h (animals protected/tested) [1]: 0/4
responders at 30 mg/kg (MES-induced seizures [2]; 0.5 h, read-out: MES 30 0.5 h (animals protected/tested)): 0%
responders at 30 mg/kg (MES-induced seizures [2]; 4 h, read-out: MES 30 4 h (animals protected/tested)): 0%
responders at 100 mg/kg (MES-induced seizures [2]; 0.5 h, read-out: MES 100 0.5 h (animals protected/tested)): 0%
responders at 100 mg/kg (MES-induced seizures [2]; 4 h, read-out: MES 100 4 h (animals protected/tested)): 0%
responders at 300 mg/kg (MES-induced seizures [2]; 0.5 h, read-out: MES 300 0.5 h (animals protected/tested)): 0%
responders at 300 mg/kg (MES-induced seizures [2]; 4 h, read-out: MES 300 4 h (animals protected/tested)): 0%
TOX 30 4 h (animals toxic/tested) [3]: 0/4
responders at 30 mg/kg ([4]; 0.4 h, read-out: scMET 30 0.4 h (animals protected/tested)): 0%
responders at 30 mg/kg ([4]; 0.5 h, read-out: scMET 30 0.5 h (animals protected/tested)): 0%
responders at 100 mg/kg ([4]; 0.4 h, read-out: scMET 100 0.4 h (animals protected/tested)): 0%
responders at 100 mg/kg ([4]; 0.5 h, read-out: scMET 100 0.5 h (animals protected/tested)): 0%
responders at 300 mg/kg ([4]; 0.4 h, read-out: scMET 300 0.4 h (animals protected/tested)): 0%
responders at 300 mg/kg ([4]; 0.5 h, read-out: scMET 300 0.5 h (animals protected/tested)): 0%
TOX 30 0.5 h (animals toxic/tested) ([5]; 30 mg/kg, 0.5 h): 0/4
TOX 30 4 h (animals toxic/tested) ([5]; 30 mg/kg, 4 h): 0/2
TOX 100 0.5 h (animals toxic/tested) ([5]; 100 mg/kg, 0.5 h): 2/8
TOX 100 4 h (animals toxic/tested) ([5]; 100 mg/kg, 4 h): 0/4
TOX 300 0.5 h (animals toxic/tested) ([5]; 300 mg/kg, 0.5 h): 3/4
TOX 300 4 h (animals toxic/tested) ([5]; 300 mg/kg, 4 h): 1/2
MES 30 0.5 h (animals protected/tested) (MES-induced seizures [6]; 0.5 h): 0/4
MES 30 4 h (animals protected/tested) (MES-induced seizures [6]; 4 h): 1/4
